According to US20230312529A1, “PYRIMIDINE SMALL-MOLECULE COMPOUND AND APPLICATION THEREOF” (WENZHOU MEDICAL UNIVERSITY, priority 2021, published 2023):

Tests used:
Assay in all cases: Caliper Mobility Shift kinase inhibition test
Assay type in all cases: biochemical
[1] = molecular target: ABL1 (Homo sapiens (Human), UniProt P00519); conditions: 100 nM; for inhibition at 0.1 µM: read-out: inhibitory rate on ABL1
Method: (§1) The method adopted in the test was Caliper Mobility Shift Assay, which was a detection platform based on the mobility detection technology of microfluidic chip technology. […] Collected data was tested on Caliper to yield that inhibition ratio to kinase activity=(max−conversion)/(max−min)×100. “max” was DMSO control without adding compound, and “min” was low control. When IC50 was determined, each sample was provided with 10 dilutions, each with 2 multiple holes, and repeated for 3 times.

[2] = molecular target: FLT3 (Homo sapiens (Human), UniProt P36888); conditions: 100 nM; for inhibition at 0.1 µM: read-out: inhibitory rate on FLT3
FLT3, sequence (P36888 27-993): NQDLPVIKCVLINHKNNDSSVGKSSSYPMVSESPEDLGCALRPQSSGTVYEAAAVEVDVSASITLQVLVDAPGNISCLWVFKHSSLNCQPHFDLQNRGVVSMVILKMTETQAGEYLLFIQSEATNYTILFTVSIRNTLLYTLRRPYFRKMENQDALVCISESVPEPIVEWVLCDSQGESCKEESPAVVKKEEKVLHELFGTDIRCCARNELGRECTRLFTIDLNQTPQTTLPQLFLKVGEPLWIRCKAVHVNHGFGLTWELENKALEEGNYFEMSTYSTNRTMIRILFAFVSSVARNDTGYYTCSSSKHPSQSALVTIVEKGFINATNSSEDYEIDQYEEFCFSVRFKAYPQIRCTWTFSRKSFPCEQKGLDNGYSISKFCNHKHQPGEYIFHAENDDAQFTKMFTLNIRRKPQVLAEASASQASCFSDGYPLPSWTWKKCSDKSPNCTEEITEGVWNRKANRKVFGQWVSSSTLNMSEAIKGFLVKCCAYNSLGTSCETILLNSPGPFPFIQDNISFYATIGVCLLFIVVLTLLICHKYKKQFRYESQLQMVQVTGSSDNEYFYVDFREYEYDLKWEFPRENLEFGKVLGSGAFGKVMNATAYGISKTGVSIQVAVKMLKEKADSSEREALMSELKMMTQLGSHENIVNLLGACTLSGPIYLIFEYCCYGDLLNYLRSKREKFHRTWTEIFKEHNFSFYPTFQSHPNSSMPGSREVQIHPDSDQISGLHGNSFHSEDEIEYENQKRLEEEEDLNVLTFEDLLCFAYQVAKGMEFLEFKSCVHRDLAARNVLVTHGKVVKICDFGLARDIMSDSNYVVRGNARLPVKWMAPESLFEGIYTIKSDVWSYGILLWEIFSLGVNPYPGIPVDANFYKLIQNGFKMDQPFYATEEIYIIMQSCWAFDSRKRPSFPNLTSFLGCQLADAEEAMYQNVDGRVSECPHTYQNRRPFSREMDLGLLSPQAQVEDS
Method: (§2) The method adopted in the test was Caliper Mobility Shift Assay, which was a detection platform based on the mobility detection technology of microfluidic chip technology. Test steps: 1.25× kinase reaction buffer (62.5 mmol/L HEPES, pH 7.5; 0.001875% Brij-35; 12.5 mmol/L MgCl2; 2.5 mM DTT) and kinase reaction stop solution (100 mmol/L HEPES, pH 7.5; 0.015% Brij-35; 0.2% Coating Reagent #3) were configured. […] Collected data was tested on Caliper to yield that inhibition ratio to kinase activity=(max−conversion)/(max−min)×100. “max” was DMSO control without adding compound, and “min” was low control. When IC50 was determined, each sample was provided with 10 dilutions, each with 2 multiple holes, and repeated for 3 times.

[3] = molecular target: PDGFRβ (Homo sapiens (Human), UniProt P09619); conditions: for inhibition at 0.1 µM / inhibitory rate on PDGFR-β: 100 nM; for inhibition at 0.1 µM: read-out: inhibitory rate on PDGFR-β; for IC50: read-out: IC50 PDGFR-β
PDGFRβ, sequence (P09619 33-1106): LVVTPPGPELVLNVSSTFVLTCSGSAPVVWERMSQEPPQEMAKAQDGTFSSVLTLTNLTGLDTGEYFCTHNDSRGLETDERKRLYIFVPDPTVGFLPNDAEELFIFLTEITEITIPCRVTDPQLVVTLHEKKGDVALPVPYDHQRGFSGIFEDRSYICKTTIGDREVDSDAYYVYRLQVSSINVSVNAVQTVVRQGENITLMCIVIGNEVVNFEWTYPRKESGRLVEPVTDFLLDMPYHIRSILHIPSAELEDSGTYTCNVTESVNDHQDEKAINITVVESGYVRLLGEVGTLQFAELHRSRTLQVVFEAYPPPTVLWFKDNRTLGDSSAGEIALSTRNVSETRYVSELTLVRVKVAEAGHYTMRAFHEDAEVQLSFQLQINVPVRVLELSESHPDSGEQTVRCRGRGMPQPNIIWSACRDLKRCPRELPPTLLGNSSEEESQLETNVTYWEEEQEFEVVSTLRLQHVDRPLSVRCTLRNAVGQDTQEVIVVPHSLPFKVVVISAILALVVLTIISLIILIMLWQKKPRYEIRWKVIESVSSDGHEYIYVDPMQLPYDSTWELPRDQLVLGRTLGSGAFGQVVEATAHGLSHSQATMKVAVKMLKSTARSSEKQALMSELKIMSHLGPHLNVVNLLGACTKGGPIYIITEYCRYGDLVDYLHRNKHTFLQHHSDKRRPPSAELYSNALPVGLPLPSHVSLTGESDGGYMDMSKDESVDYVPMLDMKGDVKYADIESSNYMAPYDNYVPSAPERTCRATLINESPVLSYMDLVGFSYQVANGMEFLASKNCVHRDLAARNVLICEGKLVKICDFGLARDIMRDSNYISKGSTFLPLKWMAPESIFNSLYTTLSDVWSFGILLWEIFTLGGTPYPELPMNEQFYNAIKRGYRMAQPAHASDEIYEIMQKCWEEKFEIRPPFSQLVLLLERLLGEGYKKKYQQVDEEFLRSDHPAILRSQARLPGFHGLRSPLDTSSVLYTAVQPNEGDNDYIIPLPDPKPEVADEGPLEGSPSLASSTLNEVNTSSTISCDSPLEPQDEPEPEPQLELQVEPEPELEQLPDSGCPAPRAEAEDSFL
Method: as §2
(§3) According to the above-mentioned method for measuring kinase inhibitory activity, the inhibitory activity of the active compounds on other multiple kinases was measured to characterize the kinase selectivity of active inhibitors.

[4] = molecular target: PDGFRα (Homo sapiens (Human), UniProt P16234)
PDGFRα, sequence (P16234 24-1089): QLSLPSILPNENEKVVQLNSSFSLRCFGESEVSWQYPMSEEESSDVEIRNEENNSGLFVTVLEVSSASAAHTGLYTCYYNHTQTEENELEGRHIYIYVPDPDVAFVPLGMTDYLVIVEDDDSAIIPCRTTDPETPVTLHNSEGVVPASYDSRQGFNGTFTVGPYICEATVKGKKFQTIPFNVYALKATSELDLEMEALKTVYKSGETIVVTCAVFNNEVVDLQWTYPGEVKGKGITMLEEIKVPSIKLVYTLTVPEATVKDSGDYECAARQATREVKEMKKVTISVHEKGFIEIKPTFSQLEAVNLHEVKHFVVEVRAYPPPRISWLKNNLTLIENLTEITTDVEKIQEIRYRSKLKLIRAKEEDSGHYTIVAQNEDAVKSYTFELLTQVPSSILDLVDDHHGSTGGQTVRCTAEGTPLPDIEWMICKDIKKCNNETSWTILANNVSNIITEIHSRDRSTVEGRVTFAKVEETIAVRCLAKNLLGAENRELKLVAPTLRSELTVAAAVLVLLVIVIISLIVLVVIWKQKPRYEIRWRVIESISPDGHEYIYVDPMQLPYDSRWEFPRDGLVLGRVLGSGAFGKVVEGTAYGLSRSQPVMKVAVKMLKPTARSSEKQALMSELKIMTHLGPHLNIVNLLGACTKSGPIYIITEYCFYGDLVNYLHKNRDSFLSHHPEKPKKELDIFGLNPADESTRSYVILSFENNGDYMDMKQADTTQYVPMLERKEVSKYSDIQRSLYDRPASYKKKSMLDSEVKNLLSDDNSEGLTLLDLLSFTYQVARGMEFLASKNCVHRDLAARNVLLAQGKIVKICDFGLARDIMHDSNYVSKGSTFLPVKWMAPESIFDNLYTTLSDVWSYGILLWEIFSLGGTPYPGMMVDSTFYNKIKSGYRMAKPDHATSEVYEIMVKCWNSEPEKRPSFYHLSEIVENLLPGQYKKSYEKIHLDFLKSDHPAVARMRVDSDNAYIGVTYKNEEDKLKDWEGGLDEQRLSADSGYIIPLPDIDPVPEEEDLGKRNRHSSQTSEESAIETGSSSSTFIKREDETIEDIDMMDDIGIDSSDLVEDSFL
Method: as §1

[5] = molecular target: ALK (Homo sapiens (Human), UniProt Q9UM73)
Method: as §2

[6] = molecular target: IKK β (Homo sapiens (Human), UniProt O14920)
Method: as §2

[7] = molecular target: FGFR2 (Homo sapiens (Human), UniProt P21802)
FGFR2, sequence (P21802 22-821, species assumed): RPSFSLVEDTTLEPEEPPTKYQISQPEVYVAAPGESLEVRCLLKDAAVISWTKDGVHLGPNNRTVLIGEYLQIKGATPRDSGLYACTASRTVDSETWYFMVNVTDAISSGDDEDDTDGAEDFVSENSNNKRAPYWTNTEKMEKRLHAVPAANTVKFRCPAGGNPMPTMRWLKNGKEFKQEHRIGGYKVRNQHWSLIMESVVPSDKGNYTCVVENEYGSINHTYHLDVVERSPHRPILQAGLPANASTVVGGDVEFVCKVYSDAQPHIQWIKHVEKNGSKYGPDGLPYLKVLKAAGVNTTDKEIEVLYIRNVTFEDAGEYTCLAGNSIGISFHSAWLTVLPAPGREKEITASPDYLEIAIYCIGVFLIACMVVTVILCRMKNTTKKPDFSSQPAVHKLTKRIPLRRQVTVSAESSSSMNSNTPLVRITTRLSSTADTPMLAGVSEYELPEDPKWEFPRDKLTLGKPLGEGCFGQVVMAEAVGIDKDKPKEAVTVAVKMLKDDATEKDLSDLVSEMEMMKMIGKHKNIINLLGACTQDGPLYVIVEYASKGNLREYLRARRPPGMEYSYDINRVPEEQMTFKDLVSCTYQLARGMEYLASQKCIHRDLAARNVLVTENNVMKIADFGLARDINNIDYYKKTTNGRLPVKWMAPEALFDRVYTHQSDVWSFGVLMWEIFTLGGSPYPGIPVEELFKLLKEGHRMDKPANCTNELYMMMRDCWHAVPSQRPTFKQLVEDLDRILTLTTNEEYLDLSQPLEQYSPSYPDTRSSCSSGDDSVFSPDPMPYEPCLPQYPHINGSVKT
Method: as §2, §3

[8] = molecular target: JAK1 (Homo sapiens (Human), UniProt P23458)
Method: as §2, §3

ABL1, sequence (P00519 whole entry): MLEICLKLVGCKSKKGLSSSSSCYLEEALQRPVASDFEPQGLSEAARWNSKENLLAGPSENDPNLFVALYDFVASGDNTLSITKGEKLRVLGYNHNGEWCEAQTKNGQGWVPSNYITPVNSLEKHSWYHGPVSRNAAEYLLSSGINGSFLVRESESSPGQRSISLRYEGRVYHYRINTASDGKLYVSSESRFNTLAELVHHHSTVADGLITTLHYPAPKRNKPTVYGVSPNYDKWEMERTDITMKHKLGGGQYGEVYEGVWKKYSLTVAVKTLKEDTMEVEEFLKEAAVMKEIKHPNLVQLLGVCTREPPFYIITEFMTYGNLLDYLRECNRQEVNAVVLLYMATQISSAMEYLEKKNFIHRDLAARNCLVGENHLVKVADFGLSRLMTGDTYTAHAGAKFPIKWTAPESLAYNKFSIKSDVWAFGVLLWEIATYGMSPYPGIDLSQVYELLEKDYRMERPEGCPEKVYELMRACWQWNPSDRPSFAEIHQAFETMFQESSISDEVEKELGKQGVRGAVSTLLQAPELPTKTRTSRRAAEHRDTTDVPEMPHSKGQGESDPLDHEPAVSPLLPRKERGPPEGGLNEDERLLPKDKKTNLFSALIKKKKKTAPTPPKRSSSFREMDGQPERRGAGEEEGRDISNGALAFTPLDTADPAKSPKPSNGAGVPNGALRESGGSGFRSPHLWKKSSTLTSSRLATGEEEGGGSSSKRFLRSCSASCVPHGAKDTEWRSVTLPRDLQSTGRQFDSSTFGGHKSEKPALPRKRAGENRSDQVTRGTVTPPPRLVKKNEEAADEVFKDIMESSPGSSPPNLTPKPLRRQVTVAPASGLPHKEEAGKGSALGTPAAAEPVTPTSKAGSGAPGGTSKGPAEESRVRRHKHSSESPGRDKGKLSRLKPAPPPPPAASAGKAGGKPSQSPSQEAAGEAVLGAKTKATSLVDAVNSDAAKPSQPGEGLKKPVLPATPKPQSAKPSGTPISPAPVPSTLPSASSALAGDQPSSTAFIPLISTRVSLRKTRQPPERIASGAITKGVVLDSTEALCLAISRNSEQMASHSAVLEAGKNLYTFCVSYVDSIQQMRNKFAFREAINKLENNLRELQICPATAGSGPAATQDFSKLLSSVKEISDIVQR

| Compound | inhibition at 0.1 µM [1] [%] | inhibition at 0.1 µM [2] [%] | inhibition at 0.1 µM [3] [%] | inhibitory rate on ABL1 [1] [%] | inhibitory rate on FLT3 [2] [%] | inhibitory rate on PDGFR-β [3] [%] | also measured |
| --- | --- | --- | --- | --- | --- | --- | --- |
| CN1CCN(c2ccc(Nc3ncc(F)c(Nc4ccc5cn[nH]c5c4)n3)cc2)CC1 [Compound 3a, 5-fluoro-N^4-(1H-indazol-6-yl)-N^2-(4-(4-methylpiperazine-1-yl)phenyl)pyrimidine-2,4-diamine] | 90.4 | 87.5 | 94.4 | – | – | – | – |
| CN1CCN(c2ccc(Nc3ncc(Cl)c(Nc4ccc5cn[nH]c5c4)n3)cc2)CC1 [Compound 3b, 5-chloro-N^4-(1H-indazol-6-yl)-N^2-(4-(4-methylpiperazine-1-yl)phenyl)pyrimidine-2,4-diamine] | 95.1 | 90.2 | 95.8 | – | – | – | – |
| CN1CCN(c2ccc(Nc3ncc(C(F)(F)F)c(Nc4ccc5cn[nH]c5c4)n3)cc2)CC1 [Compound 3c, N^4-(1H-indazol-6-yl)-N^2-(4-(4-methylpiperazine-1-yl)phenyl)-5-(trifluoromethyl)pyrimidine-2,4-diamine] | 84.2 | 78.6 | 81 | – | – | – | – |
| Cc1cnc(Nc2ccc(N3CCN(C)CC3)cc2)nc1Nc1ccc2cn[nH]c2c1 [Compound 3d, N^4-(1H-indazol-6-yl)-5-methyl-N^2-(4-(4-methylpiperazine-1-yl)phenyl)pyrimidine-2,4-diamine] | 95.2 | 90.5 | 99.6 | – | – | – | – |
| COc1cnc(Nc2ccc(N3CCN(C)CC3)cc2)nc1Nc1ccc2cn[nH]c2c1 [Compound 3e, N^4-(1H-indazol-6-yl)-5-methoxy-N^2-(4-(4-methylpiperazine-1-yl)phenyl)pyrimidine-2,4-diamine] | 54.3 | 51.2 | 55 | – | – | – | – |
| CCOC(=O)c1cnc(Nc2ccc(N3CCN(C)CC3)cc2)nc1Nc1ccc2cn[nH]c2c1 [Compound 3f, Ethyl-4-((1H-indazol-6-yl)amino)-2-((4-(4-methylpiperazine-1-yl)phenyl)amino)pyrimidine-5-carboxylate] | 4.3 | 34.8 | 3.5 | – | – | – | – |
| CN1CCN(c2ccc(Nc3nc(Nc4ccc5cn[nH]c5c4)cc(C(F)(F)F)n3)cc2)CC1 [Compound 3g, N^4-(1H-indazol-6-yl)-N^2-(4-(4-methylpiperazine-1-yl)phenyl)-6-(trifluoromethyl)pyrimidine-2,4-diamine] | 6.9 | 14.6 | 7.2 | – | – | – | – |
| Cc1cc(Nc2ccc3cn[nH]c3c2)nc(Nc2ccc(N3CCN(C)CC3)cc2)n1 [Compound 3h] | – | – | – | 5.9 | 13.8 | 21.2 | – |
| Cc1cc2c(Nc3ccc4cn[nH]c4c3)nc(Nc3ccc(N4CCN(C)CC4)cc3)nc2s1 [Compound 3i] | – | – | – | 23.6 | 42.6 | 30.7 | inhibitory rate on PDGFR-α ([4]; 100 nM): 6.6% |
| Cc1cnc(Nc2ccc(N3CCN(C)CC3)cc2)nc1Nc1ccc2[nH]ccc2c1 [Compound 5a] | – | – | – | 58.9 | 60.3 | 78.6 | inhibitory rate on PDGFR-α ([4]; 100 nM): 57.3% |
| Cc1cnc(Nc2ccc(N3CCN(C)CC3)cc2)nc1Nc1cccc2[nH]ccc12 [Compound 5b] | – | – | – | 78.8 | 60.9 | 90.3 | – |
| Cc1cnc(Nc2ccc(N3CCN(C)CC3)cc2)nc1Nc1ccc2c(cnn2C)c1 [Compound 5c, 5-methyl-N^4-(1-methyl-1H-indazol-5-yl)-N^2-(4-(4-methylpiperazine-1-yl)phenyl)pyrimidine-2,4-diamine] | 58.9 | 65.4 | 79.2 | – | – | – | – |
| Cc1cnc(Nc2ccc(N3CCN(C)CC3)cc2)nc1Nc1ccc2[nH]ncc2c1 [Compound 5d] | – | – | – | 80.9 | 80.4 | 84.1 | – |
| Cc1cnc(Nc2ccc(N3CCN(C)CC3)cc2)nc1Nc1ccc2nccnc2c1 [Compound 5e, 5-methyl-N^2-(4-(4-methylpiperazine-1-yl)phenyl)-N^4-(benzopyrazine-6-yl)-pyrimidine-2,4-diamine] | – | – | 74.1 | 65.5 | 69.8 | – | – |
| Cc1cnc(Nc2ccc(N3CCN(C)CC3)cc2)nc1Nc1ccc2nccnc2c1 [Compound 5f, 5-methyl-N^2-(4-(4-methylpiperazine-1-yl)phenyl)-N^4-(quinoxaline-7-yl)-pyrimidine-2,4-diamine] | – | – | – | 90.2 | 90.5 | 91.0 | – |
| Cc1cnc(Nc2ccc(N3CCN(C)CC3)cc2)nc1Nc1ccc2c(c1)CCCC2 [Compound 5g, 5-methyl-N^2-(4-(4-methylpiperazine-1-yl)phenyl)-N^4-(5,6,7,8-tetrahydronaphthalene-2-yl)-pyrimidine-2,4-diamine] | 89.2 | 85.7 | 90.4 | – | – | – | – |
| Cc1cnc(Nc2ccc(N3CCN(C)CC3)cc2)nc1Nc1ccc2c(c1)CCC2 [Compound 5h, N^4-(2,3-dihydro-1H-indene-5-yl)-5-methyl-N^2-(4-(4-methylpiperazine-1-yl)phenyl)pyrimidine-2,4-diamine] | 80.2 | 87.1 | 88.9 | – | – | – | – |
| Cc1cnc(Nc2ccc(N3CCN(C)CC3)cc2)nc1Nc1ccc2c(C)n[nH]c2c1 [Compound 5i, 5-methyl-N^4-(3-methyl-1H-indazol-6-yl)-N^2-(4-(4-methylpiperazine-1-yl)phenyl)pyrimidine-2,4-diamine] | 85.2 | 93.4 | 98 | – | – | – | IC50 [3]: 7.9 nM |
| Cc1cnc(Nc2ccc(N3CCN(C)CC3)cc2)nc1Nc1ccc2cn(CCNC(=O)OC(C)(C)C)nc2c1 [Compound 5j, Tert-butyl (2-(6-((5-methyl-2-((4-(4-methylpiperazine-1-yl)phenyl)amino)-pyrimidine-4-yl)amino)-2H-indazol-2-yl)ethyl) carbamate] | – | – | – | 71.6 | 74.3 | 71.1 | – |
| Cc1cnc(Nc2ccc(N3CCN(C)CC3)cc2)nc1Nc1ccc2cnn(C)c2c1 [Compound 5k, 5-methyl-N^4-(1-methyl-1H-indazol-6-yl)-N^2-(4-(4-methylpiperazine-1-yl)phenyl)pyrimidine-2,4-diamine] | 90.4 | 88.7 | 96.4 | – | – | – | inhibition at 0.1 µM ([4]; 100 nM, read-out: inhibitory rate on PDGFR-α): 91.1%; IC50 ([4]; read-out: IC50 PDGFR-α): 19 nM; IC50 [3]: 7.3 nM |
| Cc1cnc(Nc2ccc(N3CCOCC3)cc2)nc1Nc1ccc2cn[nH]c2c1 [Compound 6a, N^4-(1H-indazol-6-yl)-5-methyl-N^2-(4-morphinophenyl) pyrimidine-2,4-diamine] | – | – | – | 98.2 | 87.2 | 93.8 | IC50 [3]: 4.2 nM |
| Cc1cnc(Nc2ccc(N3CCNCC3)cc2)nc1Nc1ccc2cn[nH]c2c1 [Compound 6b, N^4-(1H-indazol-6-yl)-5-methyl-N^2-(4-(piperazine-1-yl)phenyl) py rimidine-2,4-diamine] | 91.2 | 87.3 | 68.7 | – | – | – | IC50 [3]: 68.7 nM |
| Cc1cnc(Nc2ccc(N3CCC(F)(F)CC3)cc2)nc1Nc1ccc2cn[nH]c2c1 [Compound 6c] | – | – | – | 50.6 | 74.6 | 48.5 | IC50 [5]: 476 nM; IC50 [6]: > 1000 nM; IC50 [7]: 540 nM; IC50 [3]: 103 nM; IC50 [8]: 72 nM |
| COc1cc(N2CCC(N3CCN(C)CC3)CC2)ccc1Nc1ncc(C)c(Nc2ccc3cn[nH]c3c2)n1 [Compound 6k, N^4-(1H-indazol-6-yl)-N^2-(2-methoxy-4-(4-(4-methylpiperazine-1-yl)piperidine-1-yl)phenyl)-5-methylpyrimidine-2,4-diamine] | 47.5 | 58.4 | 76.4 | – | – | – | – |
| Cc1cnc(Nc2ccc(C(=O)N3CCN(C)CC3)cc2)nc1Nc1ccc2cn[nH]c2c1 [Compound 6m, (4-((4-((1H-indazol-6-yl)amino)-5-methylpyrimidine-2-yl)amino)phenyl) (4-methylpiperazine-1-yl)methanone] | 81 | 85.6 | 78.4 | – | – | – | – |
